Results: ChEMBL document CHEMBL1155045, “Apoptosis-inducing galactolipids from a cultured marine diatom, Phaeodactylum tricornutum” (2008)

Legend:
Assay type in all cases: functional
[1] = Induction of apoptosis in mouse W2 cells assessed as cell death at 64 uM after 48 hrs by MTT assay
[2] = Effect on apoptosis-inducing gene deffective mouse D3 cells assessed as cell growth at 64 uM after 48 hrs by MTT assay; details: D3, 48 h, read-out: Activity
[3] = Effect on apoptosis-inducing gene deffective mouse D3 cells assessed as cell growth at 52 uM after 48 hrs by MTT assay; details: D3, 48 h, read-out: Activity
[4] = Induction of apoptosis in mouse W2 cells assessed as cell death at 52 uM after 48 hrs by MTT assay

Compound	Activity [1]	growth at 64 µM [2]	growth at 52 µM [3]	Activity [4]
CC/C=C\C/C=C\C/C=C\C/C=C\C/C=C\CC(=O)OC[C@H](CO[C@@H]1O[C@H](CO)[C@H](O)[C@H](O)C1O)OC(=O)CCCC/C=C\C/C=C\C/C=C\C/C=C\CC (single isomer, unassigned)	18%	14%	–	–
CC/C=C\C/C=C\C/C=C\C/C=C\C/C=C\CCCC(=O)OC[C@H](CO[C@@H]1O[C@H](CO)[C@H](O)[C@H](O)C1O)OC(=O)CCCC/C=C\C/C=C\C/C=C\CCC (single isomer, unassigned)	–	–	10%	18%
